Data: patent US11517540B2, “Restoring physiology in iron-deficient organisms using small molecules” (The Board of Trustees of the University of Illinois, priority 2015, dated 2022)
“Also recorded” adds a separate entry of the source. Where no end group is shown, it is not given here.

Assays:
[1] = system: DMT1-deficient Caco-2 epithelia monolayers; test: 55Fe uptake and transepithelial transport in DMT1-deficient Caco-2 monolayers; conditions: for 55Fe uptake into cells / transepithelial 55Fe transport: shDMT1 monolayers, apical addition
Source text: (§1) In normal epithelia, iron brought into the cell via apical DMT1 transporters is stored in cytosolic ferritin clusters and directionally exported through the basolateral membrane by FPN1. Transepithelial iron flux via this network of proteins is regulated by the iron response element which is sensitive to intracellular iron concentrations.

DMT1-deficient MEL cells [2] = test: Differentiation / hemoglobinization of DMT1-deficient MEL cells (o-dianisidine staining); conditions: for differentiation (staining of hemoglobinized cells with o-dianisidine): 2% DMSO induction
Source text: To gain a better fundamental understanding of this phenomenon, DS19 murine erythroleukemia (MEL) cells were used. These terminally differentiate toward developing erythrocytes after induction with 2% DMSO leading to increased iron uptake and globin expression. DMT1-deficient cell lines through shRNA knockdown were developed (FIG. 7, panel (B)).

[3] = system: Reticulocytes isolated ex vivo from DMT1-deficient Belgrade (b/b) rats; test: 59Fe incorporation into heme in reticulocytes isolated ex vivo; conditions: for 59Fe incorporation into heme: plasma spiked with 59Fe-transferrin, b/b reticulocytes
Protocol: The capacity for hinokitiol to restore hemoglobinization in DMT1-deficient erythroid progenitors was evaluated. Reticulocytes isolated ex vivo from DMT1-deficient Belgrade (b/b) and healthy (+/b) rats were incubated in plasma spiked with ^59Fe-transferrin to assess hinokitiol's ability to promote iron utilization.
The use of these MEL cells allowed us to test the hypothesis that hinokitiol autonomously transports iron down pre-existing concentration gradients. To do this, we utilized live cell fluorescence imaging with iron-specific dyes to visualize intracellular iron distribution.

[4] = system: Mitoferrin-deficient MEL cell lines; test: Hemoglobinization and 55Fe use in mitoferrin-deficient MEL cells; type: cell-based, murine; conditions: for hemoglobinization: conditions identical to DMT1-deficient cells
[5] = Iron binding (UV trace after addition of iron); type: physicochemical
Source text: (§2) FIG. 5 illustrates the biophysical characterization of hinokitiol.

[6] = system: DMT1-deficient Belgrade (b/b) rats; test: Chronic exposure of Belgrade (b/b) rats in rat chow: hematocrit; type: in vivo; conditions: for hematocrit after one month of treatment: 0.2% in rat chow (˜100 mg/kg/day)
Source text: (§3) Belgrade (b/b) rats (FIG. 3, panel (A)) are the leading model of the disease and display severe hematological defects such as decreased hematocrit values amongst other markers.

[7] = Release of iron from POPC liposomes
Source text: as §2

hino-rescued yeast = test: Sensitivity of hinokitiol-rescued yeast to chemical inhibitors; type: cell-based, S. cerevisiae; conditions: ebselen: Pma1; bafilomycin: V-ATPase; caspofungin: off-pathway cell wall biosynthesis
[8] = Source text: as §2
[9] = Toxicity and pharmacokinetic half-life in healthy rats
Source text: as §3

TMEM14CΔ = test: Hemoglobinization in heme biosynthesis-deficient (TMEM14CΔ) cells; type: cell-based
J774 macrophages = type: cell-based
Protocol: To test the capacity for hinokitiol to restore iron release in FPN1 deficiencies, J774 macrophages were utilized. J774 cells with ^55Fe-transferrin were incubated in the absence or presence of hepcidin. Hepcidin is a key iron regulator, down-regulating FPN1 by promoting its degradation.

FPN1 = test: 55Fe uptake and transepithelial transport in control Caco-2 monolayers with FPN1 down-regulated by quercetin; type: cell-based, human
Source text: as §1

[10] = 0.2% of feed, 13 weeks orally; cited from earlier work
Permeability assays = type: in vitro ADME; conditions: not told
Source text: This was sustained for >2 months.

DMT1-deficient MEL cells [11] = test: Live cell fluorescence imaging of intracellular iron distribution with iron-specific dyes; type: cell-based, murine
[12] = system: S. cerevisiae missing the iron transporting complex Fet3Ftr1 (fet3Δftr1Δ); test: Modified functional complementation: growth rescue of iron transporter-deficient yeast; type: cell-based
Protocol: To identify small molecules which perform such transport, a modified functional complementation experiment was performed. […] Growth restoration is not due to generic hormetic effects (FIG. 4, panel (D)) and can be sustained >40 days with continued reliance on hinokitiol (FIG. 4, panel (E)).

[13] = control monolayers treated with quercetin

Compound: CC(C)c1cccc(=O)cc1 [C2deOHino, C2-deoxy hinokitiol]
- 55Fe uptake into cells ([1]; hinokitiol 500 nM): unable to promote uptake or transport
- transepithelial 55Fe transport ([1]; hinokitiol 500 nM): unable to promote uptake or transport
- differentiation (staining of hemoglobinized cells with o-dianisidine) (DMT1-deficient MEL cells [2]; shDMT1 MEL cells, 72 hours): unable to restore physiology in any case
- 59Fe incorporation into heme [3]: no apparent effect
- 55Fe incorporation into heme [4]: did not produce these effects
- 55Fe uptake [4]: did not produce these effects
- hemoglobinization [4]: did not produce these effects
- iron binding [5]: ablated iron binding and transport; also recorded: does not bind or transport iron; also recorded: does not
- hematocrit after one month of treatment [6]: low hematocrits normally observed for untreated b/b rats
- iron transport (release of iron from POPC liposomes) [7]: ablated iron binding and transport; also recorded: does not bind or transport iron; also recorded: do not

Compound: CO/C1=C\C(C)=C\[C@@H](C)[C@@H](O)[C@@H](C)C/C(C)=C/C=C/[C@H](OC)[C@@H]([C@@H](C)[C@@H](O)[C@H](C)[C@@]2(O)C[C@@H](O)[C@H](C)[C@@H](C(C)C)O2)OC1=O [bafilomycin]
- sensitivity of hino-rescued yeast to chemical inhibition (hino-rescued yeast): exceptionally sensitive

Compound: CC[C@H](C)C[C@H](C)CCCCCCCCC(=O)N[C@H]1C[C@@H](O)[C@@H](NCCN)NC(=O)[C@@H]2[C@@H](O)CCN2C(=O)[C@H]([C@H](O)CCN)NC(=O)[C@H]([C@H](O)[C@@H](O)c2ccc(O)cc2)NC(=O)[C@@H]2C[C@@H](O)CN2C(=O)[C@H]([C@@H](C)O)NC1=O [caspofungin]
- sensitivity of hino-rescued yeast to chemical inhibition (hino-rescued yeast): equi-sensitive

Compound: Cc1c(O)c(=O)ccn1C [deferiprone, reference compound]
- 55Fe uptake into cells ([1]; hinokitiol 500 nM): unable to promote uptake or transport
- transepithelial 55Fe transport ([1]; hinokitiol 500 nM): unable to promote uptake or transport
- solubility in hexanes / partitioning into water [8]: partition primarily into water

Compound: CC(C)c1cccc(=O)c(O)c1 [hinokitiol, 2-hydroxy-6-propan-2-ylcyclohepta-2,4,6-trien-1-one]
- pharmacokinetic half life ([9]; IP injection in F344 rats): reasonable pharmacokinetic half life
- toxicity in healthy rats ([9]; rat, in vivo): relatively non-toxic
- DMT1 expression after hinokitiol [1]: independent of DMT1 expression; also recorded: does not induce expression of DMT1
- 55Fe uptake as function of hinokitiol dosage ([1]; DMT1-deficient monolayers): proportional to the hinokitiol dosage
- transepithelial 55Fe transport at high hinokitiol concentrations ([1]; DMT1-deficient monolayers): reduced when a high intracellular iron concentration is reached
- basolateral to apical iron transport ([1]; basolateral addition of 55Fe and hinokitiol): failed to promote transport of iron from the basolateral to the apical side
- monolayer integrity ([1]; hinokitiol 500 nM): without disrupting monolayer integrity
- 55Fe incorporation into ferritin ([1]; immunoprecipitation of ferritin after apical 55Fe, DMT1-deficient monolayers): restored high incorporation of ^55Fe into ferritin
- uptake and transport at range of pH ([1]; pHs observed throughout the duodenum): maintained at a range of pHs observed throughout the duodenum
- 55Fe uptake into cells ([1]; hinokitiol 500 nM): restored
- transepithelial 55Fe transport ([1]; hinokitiol 500 nM): restored
- hemoglobinization (TMEM14CΔ): did not restore hemoglobinization
- toxicity (J774 macrophages): without observable toxicity
- release of intracellular iron (J774 macrophages; J774 cells with 55Fe-transferrin, FPN1 down-regulated with hepcidin): released this intracellular iron back to normal levels in dose-dependent fashion
- restoration of transepithelial transport in FPN1 down-regulated monolayers (FPN1; quercetin-treated monolayers plus hinokitiol): unable to restore transepithelial transport
- lethality [10]: non-lethal
- oral bioavailability in vivo suggested by permeability assays (Permeability assays): good oral bioavailability
- differentiation without DMSO induction (DMT1-deficient MEL cells [2]; no DMSO induction): unable to promote differentiation without DMSO induction
- differentiation (staining of hemoglobinized cells with o-dianisidine) (DMT1-deficient MEL cells [2]; shDMT1 MEL cells, 72 hours): restored differentiation
- toxicity (DMT1-deficient MEL cells [2]; shDMT1 MEL cells, 72 hours): without toxicity
- hemolysis ([3]; at concentrations increasing heme incorporation): did not cause hemolysis
- 59Fe incorporation into heme [3]: increased ^59Fe incorporation into heme in a dose-dependent fashion; also recorded: restored incorporation of ^59Fe into heme
- 55Fe incorporation into heme [4]: increases in ^55Fe uptake and incorporation into heme
- 55Fe uptake [4]: increases in ^55Fe uptake and incorporation into heme
- hemoglobinization [4]: restored hemoglobinization
- iron binding [5]: confirmed; also recorded: binds iron
- cytosolic iron levels (calcein green) (DMT1-deficient MEL cells [11]): increased cytosolic and mitochondrial levels
- endosomal iron levels (oxyburst green) (DMT1-deficient MEL cells [11]): decreased endosomal iron levels
- mitochondrial iron levels (RPA) (DMT1-deficient MEL cells [11]): increased cytosolic and mitochondrial levels
- time over which hematocrit restoration was sustained ([6]; 0.2% in rat chow): > 2 months
- hematocrit after one month of treatment ([6]; 100 mg/kg/day): restored hematocrit to b/b rats to levels that are no longer considered anemic; also recorded: restores hematocrit to non-anemic values
- hematocrit after four weeks of treatment ([6]; 0.2% of feed, ˜125 mg/kg each day): significant increases in hematocrit
- time over which growth restoration can be sustained ([12]; continued reliance on hinokitiol): > 40 days
- restoration of cell growth ([12]; fet3Δftr1Δ yeast): restored cell growth
- growth level relative to wild type ([12]; hinokitiol-treated fet3Δftr1Δ yeast, liquid media): grow to wild type levels
- influx of 55Fe into cells ([12]; yeast): restoration of influx of ^55Fe into cells
- iron transport (release of iron from POPC liposomes) [7]: confirmed; also recorded: promotes the release of iron from POPC liposomes

Compound: Cc1ncc(CO)c(C=NNC(=O)c2ccncc2)c1O [pyridoxal isonicotinoyl hydrazone, reference compound]
- 55Fe uptake into cells ([1]; hinokitiol 500 nM): unable to promote uptake or transport
- transepithelial 55Fe transport ([1]; hinokitiol 500 nM): unable to promote uptake or transport

Compound: O=c1c(O)c(-c2ccc(O)c(O)c2)oc2cc(O)cc(O)c12 [quercetin]
- transepithelial transport after FPN1 down-regulation (FPN1; [13]): decreased transepithelial transport
- uptake after FPN1 down-regulation (FPN1; [13]): without affecting uptake

Compound: CC(C)c1cccc([O-])c(=O)c1.CC(C)c1cccc([O-])c(=O)c1.CC(C)c1cccc([O-])c(=O)c1.[Fe+3] [tris(hinacolato) iron (III)]
- partitioning of iron complex into octanol [8]: predominantly partitions into octanol
- solubility in hexanes / partitioning into water [8]: soluble in hexanes

Compound: hepcidin: key iron regulator, down-regulating FPN1 by promoting its degradation (DTHFPICIFCCGCCHRSKCGMCCKT; ends and bridges not checked; cysteine pairing not given here; UniProt P81172 60-84, looked up) [reference compound]
- iron release after FPN1 down-regulation (J774 macrophages; J774 cells with 55Fe-transferrin, presence of hepcidin): reduced iron release
